Legend:
DU4475 = assay: MTS cell growth inhibition assay; assay type: cell-based; conditions: Homo sapiens, DU-4475, 96 h, DU4475 breast, BRAF mutated, four days
Experimental: (§1) Cell growth inhibition following treatment with a zearalenone analog compound, Compound 106, was assessed in a panel of cancerous cell lines from different tissue types, which carry mutations in BRAF and/or RAS. A panel of 21 cell lines was tested with varying concentrations of Compound 106. All assays were performed in a 96 well format. Cell viability was assessed after four days following treatment. Cell viability was assessed with a MTS Assay (CellTiter96®AqueousOne Solution Cell Proliferation Assay, Promega) in a panel of cell lines carrying no mutations or various BRAF (V600E) and/or RAS mutations to determine the effect of BRAF and RAS genotype on drug sensitivity.

Colo-205 = assay: MTS cell growth inhibition assay; assay type: cell-based; conditions: Homo sapiens, 96 h, Colo-205 colorectal, BRAF mutated, four days
Experimental: as §1

HT-29 = assay: MTS cell growth inhibition assay; assay type: cell-based; conditions: Homo sapiens, 96 h, HT-29 colorectal, BRAF mutated, four days
Experimental: as §1

SK-MEL-24 = assay: MTS cell growth inhibition assay; assay type: cell-based; conditions: Homo sapiens, 96 h, SK-MEL-24 melanoma, BRAF mutated, four days
Experimental: as §1

SK-MEL-28 = assay: MTS cell growth inhibition assay; assay type: cell-based; conditions: Homo sapiens, 96 h, SK-MEL-28 melanoma, BRAF mutated, four days
Experimental: as §1

[1] = tested on: BRAF-mutated xenograft models (breast, colon, and melanoma cell lines); assay: Other xenograft models, BRAF-mutated; assay type: in vivo, mice; conditions: 40 mg/kg i.v. QD×5 for 2 weeks
Experimental: Additionally, one, five, and seven out of eight animals in the groups treated with Compound 106 at doses of 10, 20, or 40 mg/kg, respectively, were tumor-free at the end of the study on day 59. […] Compound 106 was also tested in other xenograft models, in which BRAF-mutated cells, including breast, colon, and melanoma cell lines, or wildtype cells, including pancreatic cell lines, were transplanted subcutaneously into female nude mice. Compound 106 or a vehicle control was administered intravenously.

[2] = tested on: IL-8 secretion by LOX human melanoma cells; assay: IL-8 secretion by LOX melanoma cells (ELISA); assay type: cell-based; conditions: 24 hours
Experimental: Compound 106 (5.0 mg) was weighed and dissolved in 100% anhydrous DMSO (dimethyl sulfoxide, Sigma-Aldrich®, St. Louis, Mo.) to produce a 10 mmol/L stock solution of 3.89 mg/mL. Aliquots of the 10 mmol/L stock solution were stored at −80° C. Then, on each day of an experiment, an aliquot of the stock solution was thawed and diluted 1:10 by adding RPMI-1640 culture medium to obtain a 1 mmol/L solution. Four serial 1:10 dilutions were made from 1 mmol/L working solution by adding 10% DMSO in RPMI-1640 culture medium to obtain 4 additional working solutions. Each of these working stock solutions was further diluted with culture media to obtain diluted working solutions ranging from 1 nmol/L to 10,000 nmol/L. Five mL of each of these diluted working solutions was added to each dish.
LOX human melanoma cells were originally obtained from the DCTD Tumor Repository (Frederick, Md.). The cells were grown in monolayer cultures in RPMI-1640 growth media containing 10% fetal bovine serum (FBS) at 37° C. in a 5% CO2 humidified incubator.
LOX human melanoma cells were plated at 1×10^6 cells into 100 mm dishes. After 48 hours, cells were washed three times with phosphate buffered saline (PBS) and were cultured with RPMI-1640 medium containing 0.1% FBS for another 24 hours. After removing the cell culture medium, fresh RPMI-1640 medium containing Compound 106 (1, 10, 100, 1000, or 10,000 nmol/L) was added to each culture dish and incubated for 24 hours (see Table 5). The control received 0.1% DMSO in RPMI-1640 culture medium alone to measure spontaneous secretion of IL-6 and IL-8. Three separate experiments were performed in duplicate to calculate the mean±SEM.
After a 24 hour incubation with Compound 106 or 0.1% DMSO, 5 mL of cell culture supernatant was collected. Any particulate material was removed by centrifugation. All samples were stored in the −80° C. freezer until analysis. Human IL-6 or IL-8 was determined using an ELISA kit (Human IL-8 ELISA Set, Catalog No. 555244, BD Biosciences, San Diego, Calif. and Human IL-6 ELISA Set, Catalog No. 555220, BD Biosciences, San Diego, Calif.) with the assay procedure provided by the kits. Absorbance was read on a VERSAMAX™ (Molecular Devices, now part of MDS Analytical Technologies, Sunnyvale Calif.).
After removing the cell culture supernatant, 1.0 mL of trypsin was added to the cells for 3 minutes, and then 4 mL of media containing 10% FBS was added for cell counting. Cells were counted using a hematocytometer (Bright Line Counting Chamber, Hausser Scientific, Horsham, Pa.) with a depth of 0.1 mm. The total number of cells was calculated as follows:
Total number of cells in 5 mL=C×10^4/mL×5 mL(C: actual cell count in 1 mm^2)
The level of IL-6 or IL-8 was determined as ng/1×10^6 cells. Inhibition of IL-6 or IL-8 secretion by Compound 106 was expressed as percent of control using the formula below:
Percent of control=(value of treatment−mean value of blank)/(value of control−mean value of blank)×100
The software, Graphpad Prism® (ver. 4, San Diego, Calif.) was used for calculation of mean IC50 values.

With CCNc1cc(O)c2c(c1)/C=C/C[C@H](O)[C@H](O)C(=O)/C=C\[C@@H](C)[C@H](C)OC2=O [Compound 106] the IC50 (DU4475) was < 100 nM, the IC50 (Colo-205) was < 100 nM and the IC50 (HT-29) was < 100 nM. The IC50 (SK-MEL-24) was < 100 nM, the IC50 (SK-MEL-28) was < 100 nM and the tumor regression ([1]; strongest effect of the range) was “about 73%”. For the same molecule, the tumor growth inhibition ([1]; weakest effect of the range: tumor stasis (but not regression) during treatment) was > 80%, the “IL-8 (ng/million cells) Mean” value ([2]; 1 nmol/L) was 128.8 ng/million cells and the “IL-8 (pg/million cells) Experiment 1” value ([2]; 1 nmol/L) was 112318 pg/million cells. The “IL-8 (pg/million cells) Experiment 2” value ([2]; 1 nmol/L) was 213228 pg/million cells, the “IL-8 (pg/million cells) Experiment 3” value ([2]; 1 nmol/L) was 60753 pg/million cells and the “Protein level of IL-8, Percent (%) of control Experiment 1” value ([2]; 1 nmol/L) was 106.9%. The “Protein level of IL-8, Percent (%) of control Experiment 2” value ([2]; 1 nmol/L) was 123.9%, the “Protein level of IL-8, Percent (%) of control Experiment 3” value ([2]; 1 nmol/L) was 163.4% and the “IL-8 (ng/million cells) Mean” value ([2]; 10 nmol/L) was 60.2 ng/million cells. For the same molecule, the “IL-8 (pg/million cells) Experiment 1” value ([2]; 10 nmol/L) was 47049 pg/million cells, the “IL-8 (pg/million cells) Experiment 2” value ([2]; 10 nmol/L) was 90632 pg/million cells and the “IL-8 (pg/million cells) Experiment 3” value ([2]; 10 nmol/L) was 42942 pg/million cells. For the same molecule, the “Protein level of IL-8, Percent (%) of control Experiment 1” value ([2]; 10 nmol/L) was 44.8%, the “Protein level of IL-8, Percent (%) of control Experiment 2” value ([2]; 10 nmol/L) was 52.7% and the “Protein level of IL-8, Percent (%) of control Experiment 3” value ([2]; 10 nmol/L) was 115.5%. For the same molecule, the “IL-8 (ng/million cells) Mean” value ([2]; 100 nmol/L) was 3.1 ng/million cells, the “IL-8 (pg/million cells) Experiment 1” value ([2]; 100 nmol/L) was 3079 pg/million cells and the “IL-8 (pg/million cells) Experiment 2” value ([2]; 100 nmol/L) was 3249 pg/million cells. The “IL-8 (pg/million cells) Experiment 3” value ([2]; 100 nmol/L) was 3101 pg/million cells, the “Protein level of IL-8, Percent (%) of control Experiment 1” value ([2]; 100 nmol/L) was 2.9% and the “Protein level of IL-8, Percent (%) of control Experiment 2” value ([2]; 100 nmol/L) was 1.9%. The “Protein level of IL-8, Percent (%) of control Experiment 3” value ([2]; 100 nmol/L) was 8.3%, the “IL-8 (ng/million cells) Mean” value ([2]; 1,000 nmol/L) was 2.4 ng/million cells and the “IL-8 (pg/million cells) Experiment 1” value ([2]; 1,000 nmol/L) was 3390 pg/million cells. The “IL-8 (pg/million cells) Experiment 2” value ([2]; 1,000 nmol/L) was 2273 pg/million cells, the “IL-8 (pg/million cells) Experiment 3” value ([2]; 1,000 nmol/L) was 1494 pg/million cells and the “Protein level of IL-8, Percent (%) of control Experiment 1” value ([2]; 1,000 nmol/L) was 3.2%. The “Protein level of IL-8, Percent (%) of control Experiment 2” value ([2]; 1,000 nmol/L) was 1.3%, the “Protein level of IL-8, Percent (%) of control Experiment 3” value ([2]; 1,000 nmol/L) was 4.0% and the “IL-8 (ng/million cells) Mean” value ([2]; 10,000 nmol/L) was 2.9 ng/million cells. The “IL-8 (pg/million cells) Experiment 1” value ([2]; 10,000 nmol/L) was 5179 pg/million cells, the “IL-8 (pg/million cells) Experiment 2” value ([2]; 10,000 nmol/L) was 1384 pg/million cells and the “IL-8 (pg/million cells) Experiment 3” value ([2]; 10,000 nmol/L) was 2179 pg/million cells. For the same molecule, the “Protein level of IL-8, Percent (%) of control Experiment 1” value ([2]; 10,000 nmol/L) was 4.9%, the “Protein level of IL-8, Percent (%) of control Experiment 2” value ([2]; 10,000 nmol/L) was 0.8% and the “Protein level of IL-8, Percent (%) of control Experiment 3” value ([2]; 10,000 nmol/L) was 5.9%. The activity at 0.001 µM ([2]; Homo sapiens, LOX, 1 nmol/L, read-out: Protein level of IL-8, Mean % of control) was 131%, the activity at 0.01 µM ([2]; Homo sapiens, LOX, 10 nmol/L, read-out: Protein level of IL-8, Mean % of control) was 71% and the activity at 0.1 µM ([2]; Homo sapiens, LOX, 100 nmol/L, read-out: Protein level of IL-8, Mean % of control) was 4.4%. The activity at 1 µM ([2]; Homo sapiens, LOX, 1,000 nmol/L, read-out: Protein level of IL-8, Mean % of control) was 2.9%, the activity at 10 µM ([2]; Homo sapiens, LOX, 10,000 nmol/L, read-out: Protein level of IL-8, Mean % of control) was 3.9% and the IC50 ([2]; Homo sapiens, LOX melanoma cell line, read-out: mean calculated IC50, IL-8 protein level) was 10.5 nM.

Reference: US20160291027A1, “METHODS FOR […] ABILITY OF A Z[…] COMPOUND TO TREAT CANCER” (Eisai R&D Management Co., Ltd., priority 2007, published 2016)
